Measured values as given in US8030071B2, “Restoration of cholesterol independence and its use as a selectable marker in NS0 cell culture” (priority 2005, dated 2011).

Tests used:
Hsd17b7 = Hsd17b7 transcription after 5-azacytidine treatment (real-time PCR); assay type: cell-based, mouse; conditions: NS0 cells treated with 5-azacytidine
Description: Reverse Transcription and Real-time comparative quantitative PCR. Total RNA was extracted from cells in exponential growth phase using the RNeasy Mini Kit (Qiagen, Valencia, Calif., USA), followed by reverse transcription with Superscript™ II RNase H^− Reverse Transcriptase (Invitrogen). For real-time comparative PCR analysis, samples were prepared using QuantiTect SYBR Green PCR kit (Qiagen) and reactions run on ABI 7700 (Applied Biosystems, Foster City, Calif., USA). Samples were analyzed in duplicates and β-actin was used as the normalization message. The fold change was calculated using the comparative CT method.

other systems = conditions: baseline spontaneous reactivation frequency of 10^−5 or less (Holliday et al.); cited from earlier work
NS0 cells [1] = assay: 5-azacytidine treatment and limiting dilution plating for cholesterol independent clones; assay type: cell-based, mouse
Description: Treatment with 5-azacytidine (5azaC) and isolation of cholesterol independent clones. NS0 cells at 200,000 cells/ml were treated with 5azaC (1 μM and 5 μM) in tissue culture flasks. After 48 hrs, the cells were washed and limiting dilution plating was carried out in 10 96-well plates at a dilution of 2,000 cells/well using CD Hybridoma medium without cholesterol supplement. Untreated NS0 cells were also plated in cholesterol-free medium as a control for background cholesterol independent variants in the cell population. The plates were incubated at 5% CO2, 37° C. and saturated humidity for 1-2 weeks.
5azaC treated cells were aliquoted into 96-well cell culture plates containing cholesterol-free medium. […] Single cell colonies were isolated from the 96-well culture plates and expanded to tissue culture flasks for further characterization.

NS0 cells [2] = assay: Growth kinetics of NS0 cells in tissue culture flasks with sterol supplement; assay type: cell-based, mouse; conditions: 5.0 μg/ml sterol, 4 mg/ml fatty acid-free BSA; for maximum cell density: after 70 hrs in culture; for growth of NS0 cells supported: tissue culture flasks
Description: The medium in all four flasks was supplemented with 4 mg/ml fatty acid-free BSA.
Cells and cell culture. NS0 and NS0_r, the cholesterol independent revertant, were obtained from Pfizer, Inc. (St. Louis, Mo.) and have been described previously (Seth et al., Biotechnol Bioeng, 90:552-67, 2005). Growth response of NS0 cells to various cholesterol biosynthesis pathway precursors and intermediates was studied in CD Hybridoma medium (Invitrogen, Carlsbad, Calif., USA) without cholesterol-lipid concentrate. […] Each well containing 1.5 ml precursor-supplemented medium was seeded with 2×10^5 cells/ml. NS0 cells cultured in the presence of cholesterol served as the positive control. Different intermediates were dissolved in 100% ethanol and added to the culture medium along with 4 mg/ml fatty acid-free BSA (Sigma, St. Louis, Mo., USA). […] Citric acid anhydrous, mevalonolactone, squalene, lanosterol, lathosterol, 7-dehydrocholesterol and cholesterol powder were purchased from Sigma (St. Louis, Mo., USA). All test conditions were performed in duplicate. The medium was supplemented with 4 mg/ml fatty acid-free BSA. Presence of BSA facilitates uptake of the sterol precursors (Sato et al., Mol Biol Med, 2, 121-34:1984).
In order to verify the block between lanosterol and lathosterol in the cholesterol biosynthetic pathway, growth kinetics of NS0 cells in the presence of lanosterol (5.0 μg/ml), lathosterol (5.0 μg/ml) and cholesterol (5.0 μg/ml) were determined. Cells were also grown in basal medium supplemented with fatty acid-free BSA only (FIG. 2b). […] Cells attained a maximum cell density of 4×10^6 cells/ml after 70 hrs in culture with lathosterol, compared to 3×10^6 cells/ml in medium supplemented with cholesterol. These observations were consistent over repeated cultures. The results support the notion that the block between lanosterol and lathosterol in the biosynthesis of cholesterol in NS0 is at least partly responsible for cholesterol auxotrophy in this cell line.

NS0 cells [3] = assay: Growth response of NS0 cells in 24-well plates to cholesterol biosynthesis precursors/intermediates; assay type: cell-based, mouse; conditions: cholesterol-free CD Hybridoma medium, 4 mg/ml fatty acid-free BSA, three concentrations per precursor
Description: Cells and cell culture. […] Growth response of NS0 cells to various cholesterol biosynthesis pathway precursors and intermediates was studied in CD Hybridoma medium (Invitrogen, Carlsbad, Calif., USA) without cholesterol-lipid concentrate. […] Each well containing 1.5 ml precursor-supplemented medium was seeded with 2×10^5 cells/ml. NS0 cells cultured in the presence of cholesterol served as the positive control. Different intermediates were dissolved in 100% ethanol and added to the culture medium along with 4 mg/ml fatty acid-free BSA (Sigma, St. Louis, Mo., USA). […] All test conditions were performed in duplicate. The medium was supplemented with 4 mg/ml fatty acid-free BSA.

Compound	maximum cell density (NS0 cells [2])	growth of NS0 cells supported by precursor/intermediate (NS0 cells [3])	growth of NS0 cells supported (NS0 cells [2])	other results
Nc1ncn([C@@H]2O[C@H](CO)[C@@H](O)[C@H]2O)c(=O)n1 [5azaC, 5-azacytidine]	–	–	–	transcriptional repression of Hsd17b7 (Hsd17b7): relieved; reactivated cells (other systems): 10-30%; reversion rate to cholesterol independence (NS0 cells [1]; 1 μM 5azaC): less than 1×10^−6; Survival frequency of wells in a 96-well plate culture (NS0 cells [1]; 5 μM 5azaC, 2,000 cells/well, cholesterol-free medium): ~80 % of wells; cholesterol revertants after exposure (NS0 cells [1]; 5 μM 5azaC, 48 hrs, then cholesterol-free medium): many cholesterol revertants
CC(C)CCC[C@@H](C)[C@H]1CC[C@H]2[C@@H]3CC=C4C[C@@H](O)CC[C@]4(C)[C@H]3CC[C@]12C [cholesterol]	3×10^6 cells/ml	–	–	–
CC(C)=CCC[C@@H](C)[C@H]1CC[C@@]2(C)C3=C(CC[C@]12C)[C@@]1(C)CC[C@H](O)C(C)(C)[C@@H]1CC3 [lanosterol]	–	Growth was not supported	unable to support the growth of NS0 cells	–
CC(C)CCC[C@@H](C)[C@H]1CC[C@H]2C3=CC[C@H]4C[C@@H](O)CC[C@]4(C)[C@H]3CC[C@]12C [lathosterol]	4×10^6 cells/ml	able to support the growth of cells	effective in promoting the growth of NS0 cells	–
C[C@@]1(O)CCOC(=O)C1 [mevalonolactone]	–	Growth was not supported	–	–
CC(C)=CCC/C(C)=C/CC/C(C)=C/CC/C=C(\C)CC/C=C(\C)CCC=C(C)C [squalene]	–	Growth was not supported	–	–
